Test results from patent publication US8222417B2, “Compound having 11β-HSD1 inhibitory activity” (Taisho Pharmaceutical Co., Ltd, priority 2007, dated 2012).
Counter-ions that a name gives are not always drawn.

target: T1, 11β-HSD1 (Homo sapiens, UniProt P28845); experiment: 11β-HSD1 inhibition test (human liver microsome, HTRF cortisol detection); assay type: biochemical; details: human liver microsome as enzyme source; cortisone 100 nM; 20° C., 80 minutes; generated cortisol quantified by HTRF
T1 construct: human liver microsome (enzyme source, Tissue Transformation Technologies); tissue Tissue Transformation Technologies; host or cells: human liver microsomes
T1 sequence (P28845 whole entry): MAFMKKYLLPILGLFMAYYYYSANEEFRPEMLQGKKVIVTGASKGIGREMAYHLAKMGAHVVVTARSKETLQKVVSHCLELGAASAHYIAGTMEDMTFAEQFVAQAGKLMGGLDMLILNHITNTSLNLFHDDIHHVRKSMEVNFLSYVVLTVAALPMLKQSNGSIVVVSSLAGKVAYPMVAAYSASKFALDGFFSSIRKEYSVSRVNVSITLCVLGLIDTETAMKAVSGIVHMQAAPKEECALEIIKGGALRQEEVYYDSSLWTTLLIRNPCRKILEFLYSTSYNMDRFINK
Experimental: Test Example [11β-HSD1 Inhibition Test]
Test Compounds were Evaluated as Follows.
11β-HSD1 enzyme reaction was performed in a reaction solution of 100 μl total volume using 96-well polypropylene microplates. The reaction solution was prepared in 30 mM Tris-HCl (pH 7.4)/1 mM EDTA buffer to contain NADPH at a final concentration of 100 μM, G6P at a final concentration of 1 mM, human liver microsome (enzyme source, Tissue Transformation Technologies) at a final concentration of 0.8 μg/ml and 10 μl of a test compound dissolved in DMSO. The enzyme reaction was initiated by addition of cortisone at a final concentration of 100 nM. After incubation at 20° C. for 80 minutes, 10 μl of 1 mM 18β glycyrrhetinic acid, which is a non-specific inhibitor, was added to stop the reaction. Next, the amount of generated cortisol was quantified with a detection kit (Sceti Medical Labo K.K., Japan) according to the HTRF (Homogeneous Time-Resolved Fluorescence) method. This system detects fluorescence resonance energy transfer between europium-labeled anti-cortisol antibody and XL665-labeled cortisol. Upon addition of unlabeled cortisol, binding signals will be attenuated due to competitive reaction. Based on this principle, the amount of cortisol generated by the enzyme reaction was evaluated using a standard curve obtained from samples with known concentrations of cortisol included in the kit. The HTRF reaction was performed in 96-well half area microplates as follows: to 30 μl enzyme reaction solution, an anti-cortisol antibody solution (15 μl) and an XL665-labeled cortisol solution (15 μl) included in the kit were added, and the plates were vortexed at room temperature for 1 hour and further allowed to stand at 20° C. for 1 hour. 40 μl of this reaction solution was transferred to 384-well microplates and measured for its fluorescence. 18β Glycyrrhetinic acid was added to wells before initiation of the enzyme reaction and the amount of cortisol generated in these wells was used as a background level. Test compounds were evaluated using serial dilutions at a common ratio of 3 to calculate their IC50 values, assuming that the amount of cortisol generated in wells containing no test compound was set to 100% enzyme activity.

Row | IC50 [nM] | Compound
1 | 0.6 | Cc1ccc2c(c1)N(C(=O)N[C@H]1C3CC4CC1C[C@](O)(C4)C3)CCC2 [Compound 6, N-(E-1-hydroxyadamantan-4-yl)-7-methyl-3,4-dihydroquinoline-1(2H)-carboxamide]
2 | 17.5 | O=C(NC1C2CC3CC1CC(C(=O)O)(C3)C2)N1CCCc2ccccc21 (stereo not drawn) [Compound 10b, E-4-[(3,4-dihydroquinolin-1(2H)-ylcarbonyl)amino]adamantane-1-carboxylic acid]
3 | 3.5 | O=C(N[C@H]1C2CC3CC1C[C@](O)(C3)C2)N1CCOc2ccc(F)cc21 [Compound 19, 6-fluoro-N-(E-1-hydroxyadamantan-4-yl)-2,3-dihydro-4H-1,4-benzoxazine 4-carboxamide]
4 | 6.7 | COC(=O)c1ccc2c(c1)N(C(=O)N[C@H]1C3CC4CC1C[C@](O)(C4)C3)CCO2 [Compound 20, methyl 4-[(E-5-hydroxyadamantan-2-yl)carbamoyl]-3,4-dihydro-2H-1,4-benzoxazine-6-carboxylate]
5 | 3.4 | O=C(N[C@H]1C2CC3CC1C[C@](O)(C3)C2)N1CCOc2ccc(C(F)(F)F)cc21 [Compound 26, N-(E-5-hydroxyadamantan-2-yl)-6-(trifluoromethyl)-2,3-dihydro-4H-1,4-benzoxazine-4-carboxamide]
6 | 0.6 | NC(=O)[C@]12CC3CC(C1)[C@@H](NC(=O)N1CCOc4ccc(F)cc41)C(C3)C2 [Compound 38, N-(E-5-carbamoyladamantan-2-yl)-6-fluoro-2,3-dihydro-4H-1,4-benzoxazine-4-carboxamide]
7 | 1 | O=C(N[C@H]1C2CC3CC1C[C@](O)(C3)C2)N1CCCc2c(F)cccc21 [Compound 1, 5-fluoro-N-(E-1-hydroxyadamantan-4-yl)-3,4-dihydroquinoline-1(2H)-carboxamide]
8 | 0.7 | O=C(N[C@H]1C2CC3CC1C[C@](O)(C3)C2)N1CCSc2ccccc21 [Compound 27, N-(E-5-hydroxyadamantan-2-yl)-2,3-dihydro-4H-1,4-benzothiazine-4-carboxamide]
9 | 4.6 | O=C(OC1C2CC3CC1CC(O)(C3)C2)N1CCOc2ccccc21 (stereo not drawn) [Compound 42b, E-5-hydroxyadamantan-2-yl 2,3-dihydro-4H-1,4-benzoxazine-4-carboxylate]
10 | 0.9 | CO[C@]12CC3CC(C1)[C@@H](NC(=O)N1CCCc4ccccc41)C(C3)C2 [Compound 8, N-(E-1-methoxyadamantan-4-yl)-3,4-dihydroquinoline-1(2H)-carboxamide]
11 | 1.4 | O=C(N[C@H]1C2CC3CC1C[C@](O)(C3)C2)N1CCNc2ccccc21 [Compound 32, N-(E-5-hydroxyadamantan-2-yl)-3,4-dihydroquinoxaline-1(2H)-carboxamide hydrochloride]
12 | 9.5 | O=C(OC1C2CC3CC1CC(O)(C3)C2)N1CCOc2ccc(F)cc21 (stereo not drawn) [Compound 44b, E-5-hydroxyadamantan-2-yl 6-fluoro-2,3-dihydro-4H-1,4-benzoxazine-4-carboxylate]
13 | 0.7 | O=C(N[C@H]1C2CC3CC1C[C@](O)(C3)C2)N1CCCc2ccccc21 [Compound A-1, N-[E-1-hydroxyadamantan-4-yl]-3,4-dihydroquinoline-1(2H)-carboxamide]
14 | 0.9 | O=C(N[C@H]1C2CC3CC1C[C@](O)(C3)C2)N1CCCc2cc(Cl)ccc21 [Compound A-2, 6-chloro-N-[E-1-hydroxyadamantan-4-yl]-3,4-dihydroquinoline-1(2H)-carboxamide]
15 | 1 | O=C(N[C@H]1C2CC3CC1C[C@](F)(C3)C2)N1CCCc2ccccc21 [Compound 12, N-(E-1-fluoroadamantan-4-yl)-3,4-dihydroquinoline-1(2H)-carboxamide]
16 | 3.2 | Cc1ccc2c(c1)N(C(=O)OC1C3CC4CC1CC(O)(C4)C3)CCO2 (stereo not drawn) [Compound 43b, E-5-hydroxyadamantan-2-yl 6-methyl-2,3-dihydro-4H-1,4-benzoxazine-4-carboxylate]
17 | 1.1 | Cc1ccc2c(c1)OCCN2C(=O)N[C@H]1C2CC3CC1C[C@](O)(C3)C2 [Compound 23, N-(E-5-hydroxyadamantan-2-yl)-7-methyl-2,3-dihydro-4H-1,4-benzoxazine-4-carboxamide]
18 | 1.2 | COc1ccc2c(c1)N(C(=O)N[C@H]1C3CC4CC1C[C@](O)(C4)C3)CCC2 [Compound 5, N-(E-1-hydroxyadamantan-4-yl)-7-methoxy-3,4-dihydroquinoline-1(2H)-carboxamide]

Row | IC50 [nM] | Compound
19 | 1.5 | O=C(NC1C2CC3CC(C2)CC1C3)N1CCCc2ccccc21 (stereo not drawn) [Compound A-5, N-adamantan-2-yl-3,4-dihydroquinoline-1(2H)-carboxamide]
20 | 9.6 | CN(C(=O)N1CCCc2ccccc21)[C@H]1C2CC3CC1C[C@](O)(C3)C2 [Compound A-7, N-[E-1-hydroxyadamantan-4-Y^1]-N-methyl-3,4-dihydroquinoline-1(2H)-carboxamide]
21 | 2 | CC1(C)CCN(C(=O)N[C@H]2C3CC4CC2C[C@](O)(C4)C3)c2ccccc21 [Compound 14, N-(E-1-hydroxyadamantan-4-yl)-4,4-dimethyl-3,4-dihydroquinoline-1(2H)-carboxamide]
22 | 0.8 | Cc1ccc2c(c1)N(C(=O)N[C@H]1C3CC4CC1C[C@](O)(C4)C3)CCO2 [Compound 17, N-(E-1-hydroxyadamantan-4-yl)-6-methyl-2,3-dihydro-4H-1,4-benzoxazine 4-carboxamide]
23 | 0.9 | O=C(N[C@H]1C2CC3CC1C[C@](O)(C3)C2)N1CCCc2cc(F)ccc21 [Compound 2, 6-fluoro-N-(E-1-hydroxyadamantan-4-yl)-3,4-dihydroquinoline-1(2H)-carboxamide]
24 | 1.1 | O=C(NC1C2CC3CC(C2)CC1C3)N1CCOc2ccccc21 (stereo not drawn) [Compound 34, N-adamantan-2-yl-2,3-dihydro-4H-1,4-benzoxazine-4-carboxamide]
25 | 1.4 | CN1CCN(C(=O)N[C@H]2C3CC4CC2C[C@](O)(C4)C3)c2ccccc21 [Compound 33, N-(E-5-hydroxyadamantan-2-yl)-4-methyl-3,4-dihydroquinoxaline-1(2H)-carboxamide hydrochloride]
26 | 0.6 | Cc1ccc2c(c1)N(C(=O)N[C@H]1C3CC4CC1C[C@](C(N)=O)(C4)C3)CCO2 [Compound 39, N-(E-5-carbamoyladamantan-2-yl)-6-methyl-2,3-dihydro-4H-1,4-benzoxazine-4-carboxamide]
27 | 0.6 | NC(=O)[C@]12CC3CC(C1)[C@@H](NC(=O)N1CCOc4ccccc41)C(C3)C2 [Compound 37b, N-[E-5-carbamoyladamantan-2-yl]-2,3-dihydro-4H-1,4-benzoxazine-4-carboxamide]
28 | 2.8 | N#Cc1ccc2c(c1)CCCN2C(=O)N[C@H]1C2CC3CC1C[C@](O)(C3)C2 [Compound 7, 6-cyano-N-(E-1-hydroxyadamantan-4-yl)-3,4-dihydroquinoline-1(2H)-carboxamide]
29 | 0.8 | NC(=O)C12CC3CC(C1)C(NC(=O)N1CCCc4ccccc41)C(C3)C2 (stereo not drawn) [Compound 11b, N-(E-5-carbamoyladamantan-2-yl)-3,4-dihydroquinoline-1(2H)-carboxamide]
30 | 1.1 | CO[C@]12CC3CC(C1)[C@@H](NC(=O)N1CCOc4ccccc41)C(C3)C2 [Compound 40, N-(E-1-methoxyadamantan-4-yl)-2,3-dihydro-4H-1,4-benzoxazine-4-carboxamide]
31 | 1.1 | O=C(N[C@H]1C2CC3CC1C[C@](O)(C3)C2)N1CCOc2cc(F)ccc21 [Compound 24, 7-fluoro-N-(E-5-hydroxyadamantan-2-yl)-2,3-dihydro-4H-1,4-benzoxazine-4-carboxamide]
32 | 1 | O=C(N[C@H]1C2CC3CC1C[C@](O)(C3)C2)N1CCCc2ccc(F)cc21 [Compound 3, 7-fluoro-N-(E-1-hydroxyadamantan-4-yl)-3,4-dihydroquinoline-1(2H)-carboxamide]
33 | 1.1 | Cc1cccc2c1N(C(=O)N[C@H]1C3CC4CC1C[C@](O)(C4)C3)CCO2 [Compound 25, N-(E-5-hydroxyadamantan-2-yl)-5-methyl-2,3-dihydro-4H-1,4-benzoxazine-4-carboxamide]
34 | 1.5 | O=C(N[C@H]1C2CC3CC1C[C@](O)(C3)C2)N1CCOc2ccccc21 [Compound 16, N-(E-1-hydroxyadamantan-4-yl)-2,3-dihydro-4H-1,4-benzoxazine 4-carboxamide]
35 | 0.9 | O=C(OC1C2CC3CC1CC(O)(C3)C2)N1CCCc2ccccc21 (stereo not drawn) [Compound 18b, E-5-hydroxyadamantan-2-yl 3,4-dihydroquinoline-1(2H)-carboxylate]
36 | 1.2 | O=C(N[C@H]1C2CC3CC1C[C@](O)(C3)C2)N1CCCCc2ccccc21 [Compound 13, N-(E-1-hydroxyadamantan-4-yl)-2,3,4,5-tetrahydro-1H-1-benzoazepine-1-carboxamide]
